Data as given in patent US20110150769A1, “IDENTIFICATION AND USE OF COMPOUNDS FOR TREATING PERSISTENT PAIN” (priority 2009, published 2011).
Entries after “also recorded” stand apart in the source; their conditions may differ.

Key:
[1] = tested on: WDR neurons in the dorsal horn of the spinal cord; assay: Electrophysiological recording of WDR neurons, spinal topical application; format: in vivo, mouse; details: for A-latency / A-threshold / C-latency / C-threshold: post-BAM 8-22
Procedure: The electrophysiological recording of WDR neurons in the dorsal horn of the spinal cord was performed by an experimenter blinded to the genotype as previously described in Guan et al., 2006, J. Neurosci., 26:4298-4307. Mice were paralyzed with pancuronium bromide (0.15 mg/kg, i.p.) during neurophysiological recording. Throughout the experiment, anesthesia was maintained with a constant level of isoflurane (1.5%) carried in med-air. A spinal unit with a cutaneous receptive field located in the plantar area of the hind paw was located by applying mechanical stimuli. WDR neurons were defined as those that responded to both innocuous and noxious mechanical stimuli and that had increasing rates of response to increasing intensities of stimuli. Electrical stimuli were applied through a pair of fine needles inserted subcutaneously across the central plantar area of the hind paw 0.3-0.4 cm apart. Extracellular recordings of individual neurons were obtained by using fine-tip (<1.0 μm) paralyn-coated tungsten micro-electrodes ([…] at 1 kHz).
BAM 8-22 or vehicle control was applied directly to the exposed surface of the spinal cord at the recording segment in a volume of 30-50 μl following pre-drug tests. The effects of BAM 8-22 on the spontaneous activity of WDR neurons were examined within 0-10 min after application. The evoked neuronal responses were recorded 10-30 minutes after drug application. Only one neuron in each animal was used to test the drug effects. The post-drug responses were compared with the pre-drug responses, allowing each neuron to act as its own control.
The number of action potentials (APs) evoked by graded electrical stimuli was compared between two genotypes, using a two-way mixed-model analysis of variance (ANOVA) with Fisher's protected least significant difference (LSD) post-hoc test. Student's t-test was used to compare the recording depth, activation threshold and latency of the first A-fiber-mediated and the first C-fiber-mediated responses, respectively, between the two groups. For wind-up, the raw data were the number of APs in the C-component evoked by each stimulus in a train of repetitive electrical stimulation. Since the number of APs in the C-component varies among WDR neurons, the raw data for each neuron were normalized to the first response in each trial (input) and then averaged. A two-way mixed-model ANOVA was used to compare wind-up and the averaged C-component responses to the last 10 stimuli (7th-16th) of the trial between the two genotypes and between pre- and post-drug conditions. Data are presented as mean±standard error of mean (S.E.M). Statistical comparisons were made using unpaired Student's t-test and differences were considered significant at p<0.05.

[2] = tested on: acute thermal nociception in mice; assay: Tail immersion test (50° C.) after intrathecal injection; format: in vivo, mouse; details: naive WT and Mrgpr-clusterΔ−/− mice, 1 mM, 5 μl i.th.
Procedure: Tail immersion test: mice were gently restrained in a 50-ml conical tube that the mice voluntarily entered. The protruding one third of the tail was then dipped into a 50° C. water bath. Latency to respond to the heat stimulus with vigorous flexion of the tail was measured three times and averaged.
(§1) BAM 8-22 was purchased from Tocris (Bristol, UK) and was suspended in 0.9% saline. The drug was injected intrathecally under brief isoflurane (1.5%) anesthesia to reduce stress. A 30-gauge, 0.5-inch needle connected to a 10-μl syringe was inserted into one side of the L5 or L6 spinous process at an angle of approximately 20° above the vertebral column and slipped into the groove between the spinous and transverse processes. The needle was moved carefully forward to the intervertebral space.
To determine whether intrathecal BAM 8-22 also affected acute thermal nociception, tail-immersion tests in naïve WT and Mrgpr-clusterΔ^−/− mice were performed.

[3] = tested on: CFA-induced thermal hyperalgesia in mice; assay: CFA-induced heat hyperalgesia (Hargreaves test) after intrathecal injection; format: in vivo, mouse
Procedure: All behavioral tests were performed with an experimenter blinded to the genotype. The mice used in the tests were backcrossed to C57BI/6 mice for at least five generations and were 2 to 3 month-old males (20-30 g).
CFA-induced heat hyperalgesia: the intraplantar region of one hind paw of each mouse was injected with 6 μl of 50% CFA solution or 10 μl of 1% carrageneen solution in saline. Thermal pain sensitivity was assessed by recording paw withdrawal latencies on exposure to a defined radiant heat stimulus (Hargreaves test) before CFA injection and 30 min after injection.
as §1
The ability of BAM 8-22 to modulate persistent inflammatory pain was determined by examining enhanced pain sensitivity to a noxious heat stimulus, as monitored by the Hargreaves test 24 hours after intra-plantar injection of CFA (6 μl, 50%) into one hind paw. […] In WT mice, a single intrathecal injection of BAM 8-22 (1 mM, 5 μl) was able to alleviate thermal hyperalgesia at 30 min post-injection, increasing the PWL by 1.9-fold compared to pre-drug baseline (FIG. 6A, WT, n=13, ipsilateral paw).

DRG neurons = assay: Calcium imaging of cultured DRG neurons; format: cell-based, mouse
Procedure: Calcium Imaging of Cultured Dorsal Root Ganglia (DRG) Neurons
DRG neurons were plated on poly-D-lysine/laminin-coated coverslips and cultured for 24 hours. […] Briefly, neurons were loaded with Fura 2-acetomethoxy ester (Molecular Probes) for 30 min in dark at room temperature. After washing, neurons were imaged at 340/380 nm excitation to detect intracellular free calcium. All tests were performed with an experimenter blinded to the genotype.

awake mice = assay: Spontaneous pain responses after intrathecal injection in awake mice; format: in vivo, mouse; details: awake WT and Mrgpr-clusterΔ−/− mice
Procedure: as §1
Intrathecal injection of BAM 8-22 in awake mice elicited short-term (less than 10 min) spontaneous pain responses.

opioid receptors = details: literature; cited from earlier work
[4] = Mrgpr-clusterΔ−/− mice, 0.1 mM, 30-50 μl

## BAM 8-22
[1]; Mrgpr-clusterΔ−/− mice
  input value and C-component responses of WDR neurons to 0.5 Hz stimulation: significantly increased
[1]; [4]
  input value and C-component responses of WDR neurons to repetitive (0.5 and 1.0 Hz) stimulation: significantly increased
  wind-up levels (normalized to the input value): not increased
[1]; Mrgpr-clusterΔ−/− mice, n=17, 0.1 mM, intensities >1.0 mA (2.0-5.0 mA)
  C-component responses of WDR neurons to graded electrical stimulation: significantly increased
[1]; Mrgpr-clusterΔ−/−
  A-latency: 12.9 ± 0.6 ms
  A-threshold: 0.19 ± 0.03 mA
  C-latency: 118 ± 4 ms
  C-threshold: 1.9 ± 0.6 mA
[1]; WT WDR neuron, 0.5 Hz, 10-30 min after saline wash-out
  windup response after saline wash-out: partially recovered
[1]; WT mice, n=25, 0.1 mM, 30-50 μl
  wind-up / C-component responses to 0.5 Hz and 1.0 Hz stimulation: significantly attenuated; also recorded: inhibited
[1]; WT mice, n=25, spinal superfusion, 10-30 min after application
  windup of WDR neurons to 0.5 Hz stimulation: significantly attenuated; also recorded: significantly decreased; also recorded: substantially attenuated
[1]; Wild-type
  A-latency: 12.1 ± 0.7 ms
  A-threshold: 0.17 ± 0.03 mA
  C-latency: 115 ± 4 ms
  C-threshold: 1.7 ± 0.4 mA
[1]; either WT or Mrgpr-clusterΔ−/− mice
  threshold and latency of the first C-fiber-mediated action potential: unaffected
[2]
  tail flick latency vs pre-drug: not significantly different; also recorded: did not significantly change
[3]; Mrgpr-clusterΔ−/− mice, 1 mM, 5 μl i.th., 24 h after CFA
  anti-hyperalgesic effect, ipsilateral hind paw: not observed
[3]; WT and Mrgpr-clusterΔ−/− mice, contralateral hind paw
  sensitivity to acute radiant heat (Hargreaves test): did not significantly change
[3]; WT mice, 1 mM, 5 μl i.th., 24 h after CFA
  thermal hyperalgesia of the ipsilateral hind paw: significantly alleviated
[3]; WT mice, ipsilateral paw, 1 mM, 5 μl i.th., 30 min post-injection, 24 h after CFA
  increase of paw withdrawal latency (PWL) compared to pre-drug baseline: 1.9 fold
[3]; either group (WT, Mrgpr-clusterΔ−/−), 1 mM, 5 μl i.th.
  PWL of the contralateral (control side) hind paw: did not significantly affect
DRG neurons; adult mutant (Mrgpr-clusterΔ−/−) DRG neurons
  responses in DRG neurons: no responses
DRG neurons; comparison of WT and MrgprA1GFP/GFP mice
  percentage of DRG neurons responding, WT vs MrgprA1GFP/GFP mice: did not differ significantly
DRG neurons; newborn Mrgpr-clusterΔ−/− mice
  responses in DRG neurons: few or no responses
Awake mice
  duration of spontaneous pain responses elicited by intrathecal injection: less than 10 min
Opioid receptors
  activation of opioid receptors: but not opioid receptors
